Test results: US8241863B2, “Identification of an evolutionarily conserved pathway mediating transrepression of inflammatory response genes by nuclear receptors” (The Regents of the University of California, priority 2005, dated 2012)
Entries after “also recorded” stand apart in the source; their conditions may differ.

Experiments:
[1] = tested on: ABCA1 gene; experiment: ABCA1 expression in primary macrophages by real-time PCR; format: cell-based, mouse; settings: oxysterols 5 μM, 18 hours; less potently than GW3965 1 μM for the first three (FIG. 14 lower)
Experimental: (§1) Primary mouse peritoneal macrophages were treated in the upper panel with LPS and the indicated ligands and harvested for real time PCR analysis of iNOS expression 6 h later. In the lower panel, cells were treated with the indicated ligands for 18 hours and harvest for real time PCR analysis of ABCA1 expression. GW3965 was used at a concentration of 1 μM. The oxysterols were used at a concentration of 5 μM.

[2] = tested on: iNOS gene; experiment: iNOS expression in LPS-treated primary peritoneal macrophages by real-time PCR, LXR ligands; format: cell-based, mouse; settings: for repression of iNOS activation: oxysterols 5 μM, LPS, 6 h, less potently than GW3965 1 μM where active (FIG. 14 upper)
Experimental: Thioglycollate-elicited macrophages were isolated by peritoneal lavage 3 days following peritoneal injection of 2.5 ml 3% thioglycollate (DIFCO). Cells were plated in RPMI medium 1640 and 10% fetal bovine serum. After 5 h the medium was removed and cells were fed with fresh medium. For RNAi experiments, smart-pool siRNAs (Dharmacon) against NCoR and Ubc9 were transfected into primary macrophages using lipofectamine 2000 (Invitrogen), incubated for 48 h and validated by Q-PCR and Western Blotting. LPS (Sigma) was used at a concentration of 1 μg/ml and GW3965 (obtained under MTA from GlaxoSmithKline) was used at a concentration of 1 μM.
Total RNA (isolated by RNeasy kit, Qiagen) was prepared from primary macrophages pretreated with 1 μM GW3965 (2 h) before 1 μg/ml LPS stimulation (6 h). One microgram of total RNA was used for CDNA synthesis, and 1 μl of cDNA was used for real time PCR using iNOS or inflammatory-gene-specific primers.
(§2) Macrophages were transfected with siRNA for 48 h and then stimulated with LPS ([…]) for 6 h in the absence or presence of LXR ligand (GW3965, 1 μM). iNOS expression in peritoneal macrophages was evaluated by real-time quantitative PCR and iNOS promoter activation in RAW264.7 was evaluated by luciferase assay. […] Primary macrophages were treated with LPS ([…]) with or without the LXR ligand (GW3965, 1 μM) for 1 h.
as §1

[3] = target: T1, PPARγ (Homo sapiens, UniProt P37231); settings: cited from earlier work
T1 sequence (P37231 1-505): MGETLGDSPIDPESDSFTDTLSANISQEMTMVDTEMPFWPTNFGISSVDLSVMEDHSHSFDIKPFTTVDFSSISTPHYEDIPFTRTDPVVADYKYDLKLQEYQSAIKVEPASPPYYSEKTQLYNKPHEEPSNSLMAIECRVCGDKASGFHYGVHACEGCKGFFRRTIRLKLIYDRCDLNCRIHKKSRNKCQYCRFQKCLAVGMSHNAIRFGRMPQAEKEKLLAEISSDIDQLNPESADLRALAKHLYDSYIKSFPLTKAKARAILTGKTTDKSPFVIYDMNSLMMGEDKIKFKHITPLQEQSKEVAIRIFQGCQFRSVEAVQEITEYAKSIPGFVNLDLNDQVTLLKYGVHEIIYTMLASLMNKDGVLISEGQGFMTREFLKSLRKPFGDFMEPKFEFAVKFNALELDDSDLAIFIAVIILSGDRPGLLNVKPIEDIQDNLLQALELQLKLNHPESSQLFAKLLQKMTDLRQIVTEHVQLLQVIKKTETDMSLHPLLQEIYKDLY

[4] = tested on: iNOS promoter; experiment: Chromatin immunoprecipitation on the iNOS promoter in primary macrophages or RAW 264.7 cells; format: cell-based, mouse; settings: primary macrophages, ligand 1 h then LPS 1 h (FIG. 1e)
Experimental: 2-4×10^6 primary macrophages or RAW 264.7 cells were used per experimental point. Cells were pre-treated with 1 μM Ro (1 h) and stimulated with 1 μg/ml LPS (1 h). Cross-linking was carried out for 10 min with 1% formaldehyde and cells lysed with 1% SDS, 10 mM EDTA, 50 mM Tris-HCl pH 8.1 and sonicated 10 sec-5 times. Five μg antibody conjugated to sheep anti-rabbit dyna-beads (Dyna1) were used for immunoprecipitations. For PPARγ, 2 μg of H-100 plus 3 μg of PPARγ antibody from Geneka were used in combination. Alternatively, anti-HA protein A sepharose beads (Covance) were used for wild-type and mutant HA-tagged PPARγ proteins. HDAC3 and p65 antibodies were from SantaCruz. NCoR antibody was from Affinity Bioreagents, Inc. Beads were washed twice with wash buffer: 150 mM NaCl, 0.1% SDS, 1% Triton X-100, 2 mM EDTA, 20 mM Tris-HCl and subsequently with buffer: 0.25 M LiCl, 1% NP-40, 1% deoxycholate, 1 mM EDTA, 10 mM Tris-HCl. Beads were eluted in 300 μl of TE with 1% SDS and 0.1 M NaCO3. Elute samples and 10% inputs were reversed at 65° C. for a minimum of 6 h. […]
In FIG. 1e, primary macrophages were pretreated with Ro or GW0072 for 1 h followed by 1 h LPS induction and formaldehyde crosslinking. A 150 base pair region of the iNOS promoter spanning the most proximal NF-κB site to the start of transcription was analyzed by ChIP assays using the indicated antibodies.

[5] = tested on: iNOS promoter; experiment: iNOS-luciferase reporter transrepression in RAW264.7 cells transfected with PPARγ; format: cell-based, mouse
Text: For transrepression experiments, wild-type PPARγ or PPARγ mutants were transfected at a 3:1 ratio to reporter plasmids using Superfect reagent (Qiagen). […] Transfection experiments evaluated each experimental condition in triplicate and results were expressed as mean +/− standard deviation. Each transfection experiment was independently repeated at least three times. Statistical analysis was preformed using Student's t-test with P<0.01 considered statistically significant.
In FIG. 1b, RAW264.7 cells were transfected with the indicated siRNAs and PPARγ expression and iNOS-luciferase reporter plasmids. Cells were treated with LPS and/or Ro as in panel a prior to assay of luciferase activity. […] In FIG. 1d, RAW264.7 cells were transfected with the indicated siRNAs and PPARγ expression and iNOS-luciferase reporter plasmids. Cells were treated with LPS and/or Ro as in FIG. 1a, prior to assay of luciferase activity. […] In FIG. 1f, RAW264.7 cells were transfected with the indicated siRNAs and PPARγ expression and iNOS-luciferase reporter plasmids and stimulated with LPS for 6 h prior to assay of luciferase activity.
In FIG. 4a, RAW264.7 cells were transfected with the iNOS reporter, PPARγ expression plasmid and Ubc9-siRNA. 36 h post-transfection cells were pretreated with Ro for 1 h and LPS for 6 h prior to assay of luciferase activity. […]

[6] = target: T2, PPARγ (Mus musculus, UniProt P37238); experiment: Transactivation assay on positively regulated PPARγ-dependent promoter (Aox-TK luciferase) in RAW264.7 cells; format: cell-based
T2 construct: expressed in transfected cells; host or cells: RAW264.7 mouse macrophage cell line
T2 sequence (P37238 1-475 isoform P37238-2): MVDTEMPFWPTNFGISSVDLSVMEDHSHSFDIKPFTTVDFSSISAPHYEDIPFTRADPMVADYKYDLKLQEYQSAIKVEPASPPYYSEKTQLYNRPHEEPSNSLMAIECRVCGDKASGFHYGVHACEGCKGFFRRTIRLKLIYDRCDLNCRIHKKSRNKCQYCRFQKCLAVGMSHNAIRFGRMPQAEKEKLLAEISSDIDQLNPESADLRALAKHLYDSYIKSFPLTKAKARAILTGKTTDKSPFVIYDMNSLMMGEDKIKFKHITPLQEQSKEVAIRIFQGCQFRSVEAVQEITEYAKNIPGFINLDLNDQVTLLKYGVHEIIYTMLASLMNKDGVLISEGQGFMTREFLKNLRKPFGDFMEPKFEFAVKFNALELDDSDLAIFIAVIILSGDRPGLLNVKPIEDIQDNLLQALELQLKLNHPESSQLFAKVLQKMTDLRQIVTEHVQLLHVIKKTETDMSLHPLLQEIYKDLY
Experimental: The RAW264.7 mouse macrophage cell line was transiently transfected with plasmids containing the iNOS or Aox-TK promoters directing luciferase expression as previously described 22. For transrepression experiments, wild-type PPARγ or PPARγ mutants were transfected at a 3:1 ratio to reporter plasmids using Superfect reagent (Qiagen). For siRNA experiments, RAW264.7 cells were transfected with siRNAs (40 nM) using Superfect reagent for 48 h prior to activation with PPARγ ligands and LPS induction. […] Transfection experiments evaluated each experimental condition in triplicate and results were expressed as mean +/− standard deviation. Each transfection experiment was independently repeated at least three times. Statistical analysis was preformed using Student's t-test with P<0.01 considered statistically significant.
In FIG. 5b, in vivo detection of SUMOylation of PPARγ was performed in HeLa cells transfected with myc-tagged Sumo1 and HA-tagged WT-PPARγ or PPARγ^K365R. Cells were immunoprecipitated for HA tag and blotted for myc tag. NT refers to non-transfected cells. In FIG. 5c, RAW264.7 cells were transfected with wild-type (WT) and mutant HA-PPARγ and Flag(FL)-tagged PIAS1 expression plasmids and treated with Ro for 0, 10, 30 or 60 min. Whole cell extracts were immunoprecipitated for HA tag followed by western blotting for FL-PIAS1. […]

[7] = tested on: iNOS promoter; experiment: ChIP for LXR and NCoR on the iNOS promoter in primary macrophages, LXR ligand; format: cell-based, mouse
Experimental: For each experimental condition, 20×10^6 primary macrophages were used. Cells were pre-treated with 1 μM GW3965 (1 h) and stimulated with 1 μg/ml LPS (1 h) before crosslinking for 10 min with 1% formaldehyde. Crosslinked adducts were resuspended and sonicated resulting in DNA fragments of 300-900 bp. Anti-LXR (Calbiochem) or anti-NCoR (Affinity Bioreagents) antibodies were used. Protein-bound, immunoprecipitated DNA was reverse cross-linked at 65° C. overnight and then purified using PCR purification Kit (Qiagen). A 150-bp region of the iNOS promoter was amplified by real time PCR spanning the most proximal NF-κB site to the start of transcription.
as §2

[8] = tested on: iNOS promoter; experiment: iNOS-luciferase reporter in RAW264.7 cells transfected with LXRα; format: cell-based, mouse; settings: RAW264.7, LXRα
Experimental: The RAW264.7 mouse macrophage cell line was transiently transfected with iNOS or ABCA1 promoters directing luciferase expression, pCMXhLYRα, FLAGhLXRβ, and their mutants. For transrepression experiments, wildtype LXRα and LXRβ or LXR mutants were transfected at a 3:1 (LXR to reporter plasmid) ratio using Superfect reagent (Qiagen). For siRNA experiments, RAW264.7 cells were transfected with siRNAs (40 nM) using Superfect reagent for 48 h before activation with LXR ligands and LPS induction. […]
Macrophages were transfected with siRNA for 48 h and then stimulated with LPS ([…]) for 6 h in the absence or presence of LXR ligand (GW3965, 1 μM). iNOS expression in peritoneal macrophages was evaluated by real-time quantitative PCR and iNOS promoter activation in RAW264.7 was evaluated by luciferase assay. […]

[9] = tested on: Ccl3, Ccl7, Cxcl10 and Tgtp; experiment: Microarray analysis of primary macrophages treated with LPS with or without PPARγ agonist; format: cell-based, mouse; settings: LPS (FIG. 2e)
Experimental: In FIG. 2a, CHIP analysis of NCoR and Ubc5 occupancy on the iNOS promoter was performed in primary macrophages stimulated with LPS for the indicated times in the presence or absence of Ro. In FIG. 2b, Semi-quantitative RT-PCR analysis of iNOS and GAPDH mRNA in primary macrophages. Cells were treated with Ro 1 h before (pre) or 1 h following (post) stimulation with LPS. RNA was isolated for analysis 6 h after LPS treatment. In FIG. 2c, ChIP analysis for p65 and PPARγ on iNOS and CD36 promoters in primary macrophages was performed as described in FIG. 2a. In FIG. 2d, ChIP analysis of the iNOS promoter for NCoR and PPARγ was carried out in primary macrophages 1 h following LPS stimulation. Ro was given 1 h before (pre) or 1 h after (post) stimulation. Cells were transfected with control or NCoR-specific siRNAs 48 h prior to LPS stimulation. In FIG. 2e, Expression data derived from microarray analysis of primary macrophages treated with LPS in the presence or absence of the PPARγ-specific agonist GW7845. In FIG. 2f, ChIP analysis for NCoR and PPARγ on the indicated promoters was carried out using primary macrophages as in 2d.

[10] = tested on: iNOS gene; experiment: iNOS mRNA in LPS-stimulated primary macrophages (Northern blot / semi-quantitative RT-PCR), PPARγ ligands; format: cell-based, mouse; settings: as little as 10 nM Trichostatin A 1 h, then 1 μM Ro 2 h, LPS 6 h (FIG. 1c)
Experimental: Primary macrophages were elicited by intra-peritoneal injection with 2 ml of thioglycollate. […] For RNAi experiments, smart-pool siRNAs (Dharmacon) against PIAS1, Ubc9, HDAC3, HDAC7 or control non-specific and previously validated NCoR were transected using lipofectamine 2000 (Invitrogen) into primary macrophages and incubated for 48 h.
Total RNA (Trizol method) was prepared from thioglycollate-elicited primary macrophages pre-treated with 1 μM Ro (2 h) prior to 1 μg/ml LPS stimulation (6 h). One μg of total RNA was used for cDNA synthesis using the First-strand synthesis RT system (Invitrogen). Two μl of cDNA was used for PCR using iNOS or inflammatory gene specific primers amplifying a 0.7 kb region of cDNA. GAPDH cDNA samples were carried out for 22 to 25 cycles. […]
Total RNA was analyzed for iNOS and GAPDH mRNA by Northern Blotting. […] Cells were stimulated with LPS for 6 h and total RNA was analyzed as in FIG. 1a. […] A 150 base pair region of the iNOS promoter spanning the most proximal NF-κB site to the start of transcription was analyzed by ChIP assays using the indicated antibodies. […]
In FIG. 2a, CHIP analysis of NCoR and Ubc5 occupancy on the iNOS promoter was performed in primary macrophages stimulated with LPS for the indicated times in the presence or absence of Ro. In FIG. 2b, Semi-quantitative RT-PCR analysis of iNOS and GAPDH mRNA in primary macrophages. […]

With CC(C)CC[C@@H](O)[C@@H](C)[C@H]1CC[C@H]2[C@@H]3CC=C4C[C@@H](O)CC[C@]4(C)[C@H]3CC[C@]12C [22R-hydroxycholesterol] the “induction of ABCA1 expression” value [1] was “induce ABCA1 expression” and the “repression of iNOS activation” value [2] was “repress iNOS activation”.

For C[C@H](CC[C@@H]1OC1(C)C)[C@H]1CC[C@H]2[C@@H]3CC=C4C[C@@H](O)CC[C@]4(C)[C@H]3CC[C@]12C [24(S), 25-epoxycholesterol], the “induction of ABCA1 expression” value [1] was “induce ABCA1 expression” and the “repression of iNOS activation” value [2] was “repress iNOS activation”.

With CC(C)C(O)CC[C@@H](C)[C@H]1CC[C@H]2[C@@H]3CC=C4C[C@@H](O)CC[C@]4(C)[C@H]3CC[C@]12C (some centres unmarked) [24-hydroxycholesterol] the “induction of ABCA1 expression” value [1] was “induce ABCA1 expression” and the “repression of iNOS activation” value [2] was “repress iNOS activation”.

With C[C@H](CCCC(C)(C)O)[C@H]1CC[C@H]2[C@@H]3CC=C4C[C@@H](O)CC[C@]4(C)[C@H]3CC[C@]12C [25 hydroxycholesterol] the “induction of ABCA1 expression” value [1] was “activate ABCA1” and the “repression of iNOS activation” value [2] was “do not repress iNOS activation”.

In the case of C[C@@H](CO)CCC[C@@H](C)[C@H]1CC[C@H]2[C@@H]3CC=C4C[C@@H](O)CC[C@]4(C)[C@H]3CC[C@]12C [27-hydroxycholesterol], the “induction of ABCA1 expression” value [1] is reported as “activate ABCA1” and the “repression of iNOS activation” value [2] is reported as “do not repress iNOS activation”.

For CCCCCCCC1SC(CC(=O)N(Cc2ccccc2)Cc2ccccc2)C(=O)N1CCCCc1ccc(C(=O)O)cc1 (centres unmarked) [GW0072], the “dissociation of NCoR from PPARγ” value [3] is listed as “effective at dissociating NCoR from PPARγ; also recorded: disrupts direct interactions between NCoR and PPARγ”, the “stimulation of interactions with nuclear receptor coactivators” value [3] is listed as “only weakly stimulates” and the “NCoR and HDAC3 occupancy of iNOS promoter after LPS stimulation” value [4] is listed as “both NCoR and HDAC3 remained on the iNOS promoter”.

For CN(CCOc1ccc(C[C@H](Nc2ccccc2C(=O)c2ccccc2)C(=O)O)cc1)c1ccccn1 [GW1929], the “repression of LPS induced iNOS promoter activity” value [5] was “very weak repressor” and the transactivation activity [6] was “strong transactivation activity”.

In the case of O=C(O)Cc1cccc(OCCCN(Cc2cccc(C(F)(F)F)c2Cl)CC(c2ccccc2)c2ccccc2)c1 [GW3965], the “LXR recruitment on the iNOS promoter” value ([7]; GW3965 1 μM, LPS 1 h (FIG. 10C)) is reported as “ligand-dependent and NCoR-dependent LXR recruitment”, the “LPS-stimulated release of NCoR from the iNOS promoter” value ([7]; peritoneal macrophages, GW3965 1 μM (FIG. 10D)) is reported as “inhibits” and the “effect of NCoR-specific siRNA on ligand-dependent repression of LPS-induced iNOS expression” value ([2]; peritoneal macrophages, GW3965 1 μM, LPS 1 mg/ml 6 h (FIG. 10A)) is reported as “abolishes”. The “effect of Ubc9-specific siRNA on ligand-dependent repression of LPS-induced iNOS expression” value ([2]; peritoneal macrophages, GW3965 1 μM, LPS 1 mg/ml 6 h (FIG. 11A)) was “significantly impairs”, the “effect of NCoR-specific siRNA on ligand-dependent repression of iNOS promoter activation” value ([8]; GW3965 1 μM (FIG. 10B)) was “abolishes” and the “effect of Ubc9-specific siRNA on ligand-dependent repression of iNOS promoter activation” value ([8]; GW3965 1 µM (FIG. 11B)) was “significantly impairs”.

With COC(=O)c1ccccc1N[C@@H](Cc1ccc(OCCc2nc(-c3ccccc3)oc2C)cc1)C(=O)O [GW7845] the “effect on LPS induction of Ccl3, Ccl7, Cxcl10 and Tgtp” value [9] was “repression of the LPS response”.

With CC(/C=C/C(=O)NO)=C\[C@@H](C)C(=O)c1ccc(N(C)C)cc1 [Trichostatin A] the “effect on rosiglitazone-dependent transrepression of iNOS” value [10] was “reversed rosiglitazone-dependent transrepression of iNOS”.
